Experimental data published in patent US12616696B2, “Crystalline forms of (p)-3-chloro-4-((3,5-difluoropyridin-2-yl)methoxy)-2′-(2-(2-hydroxypropan-2-yl)pyrimidin-4-yl)-5′,6-dimethyl-2h-[1,4′-bipyridin]-2-one” (ACLARIS THERAPEUTICS, INC., priority 2020, dated 2026).

How the values were obtained:
[1] = in vitro; conditions: 50 mg, Tmax (time interval where BAmax is recorded)
Experimental: Test System: The study was performed in the TNO dynamic, multi-compartmental in vitro system of the stomach and small intestine (tiny-TIM). The tiny-TIM system consists of a gastric compartment and one small intestinal compartment (FIG. 8). This compartment is composed of two glass units with a flexible silicone inner wall enclosing the luminal material. The space between the inner and outer walls is filled with water. Peristaltic mixing of the chyme is the result of alternate compression and relaxation of the flexible inner wall. The compartments are connected by peristaltic valve pumps that successively open and close, allowing the chyme to transit over time through the compartments. […] The set-points for gastrointestinal simulation are controlled and monitored by specific computer programs. […]
Filtration of released and dissolved/solubilized drug molecules from the intestinal lumen via a semi-permeable membrane unit (Fresenius plasmaFlux® P1dry) allowed the assessment of the so-called bio-accessible fraction, i.e. the fraction of the drug which is available for small intestinal absorption. […] The collected volume per time period was measured and sub-samples were taken, instantly diluted in 50% Acetonitrile in Milli-q water and stored at 2-10° C., protected from light, until analysis.

[2] = test system: phospho-HSP27; assay: Phosphoprotein analysis in PMA-differentiated U937 cells: phospho-Hsp27/total Hsp27; format: cell-based; conditions: Homo sapiens, U-937, read-out: pHSP27/Total HSP27 IC50
Experimental: (§1) The JNK pathway leads to increased inflammation by boosting production of inflammatory cytokines. […] Classical p38 inhibitors block the phosphorylation of downstream substrates of p38 while elevating activity of parallel pathways such as JNK. Evaluation of the impact of different classes of p38 inhibitors on p38 and JNK pathway regulation was carried out using phospho-HSP27 and phosphor-JNK for the two pathways, respectively. Evaluation of the potency and efficacy of p38 inhibitors to impact phosphoprotein levels was carried out using the human U937 cell line. The U937 human pre-monocytic cell line was obtained from the American Type Culture Collection (Rockville, MD). These cells were differentiated to a monocytic/macrophage phenotype as described by Burnette (Burnette et al, (2009). SD0006: a potent, selective and orally available inhibitor of p38 MAP Kinase, Pharmacology 84(1):42-60). Suspension cells (approximately 0.5 million per milliliter in T75 cm^2 tissue culture flasks) were grown in RPMI containing 10% fetal bovine serum (FBS) plus antibiotics. On day one, phorbol 12-myristate 13-acetate (PMA, 20 ng/mL) was added to the culture flask and the cells were incubated overnight at 37° C./5% CO2. The cells were washed on day two by centrifuging and resuspending them in fresh media without PMA. […]

[3] = physchem; conditions: thermodynamic from solid; for solubility: 23 °C; for solubility at 1 h: 40 °C, Solubility at 40° C.
[4] = test system: phospho-JNK; assay: Phosphoprotein analysis in PMA-differentiated U937 cells: phospho-JNK/total JNK; format: cell-based; conditions: Homo sapiens, U-937, read-out: pJNK/Total JNK EC50
Experimental: as §1

- Tmax [1]: 1 to 1.5 h
- IC50 [2]: 1.15 nM
- solubility ([3]; organic solvent or mixture, low solubility at RT): < 10000 µg/mL
- solubility ([3]; water, Solubility at RT): < 6000 µg/mL
- solubility at 1 h ([3]; organic solvent or mixture): > 9000 µg/mL
- solubility at 1 h ([3]; water): < 6000 µg/mL
- EC50 [4]: 117 nM
SMILES: Cc1cnc(-c2ccnc(C(C)(C)O)n2)cc1-n1c(C)cc(OCc2ncc(F)cc2F)c(Cl)c1=O (atropisomer, axis not shown; (P)) [Compound 49a, (P)-3-chloro-4-((3,5-difluoropyridin-2-yl)methoxy)-2′-(2-(2-hydroxypropan-2-yl)pyrimidin-4-yl)-5′,6-dimethyl-2H-[1,4′-bipyridin]-2-one]
